The values that follow come from PMC8864858, “Synthesis, in vitro biological evaluation and molecular modelling of new 2-chloro-3-hydrazinopyrazine derivatives as potent acetylcholinesterase inhibitors on PC12 cells” (BMC Chemistry, 2022).

Data set [1] has as its target T1, AChE from Electrophorus electricus (Electrophorus electricus, UniProt O42275).
T1 construct: purchased Sigma
Description: biochemical. Particulars: Ellman method, compounds 0.1–10 µM, triplicate; read-out: IC50 against AChE activity. The method, then: The AChE inhibitory activity of all synthesized novel derivatives and their controls was evaluated through using the Ellman method. […] Each concentration was assayed in triplicate. […] Finally, absorbance was recorded by using a Pharmacia Biotech Ultrospec 3000 UV–Vis spectrophotometer at 410 nm.

Data set [2] in a line: DPPH radical scavenging assay. Particulars: for Scavenging activity on DPPH radical (in words): Fig. 3B. The class given is physicochemical. The method, then:
(§1) The radical scavenging activity of prepared compounds was assessed through using ABTS decolorization assay and method reported by Re et al. with few modifications. In this regard, ABTS solution was diluted with 80% ethanol to the absorbance of 0.70 ± 0.05 at 734 nm. After adding 100 µL of the obtained compounds in ethanol (1–30 µM) or ascorbic acid, absorbance was measured at exactly 20 min in the same wavelength. DPPH assay was based on the method provided by Ghafouri et al. with some modifications. Additionally, the quenching of free radicals by novel synthesized compounds was evaluated spectrophotometrically (UV–Vis Pharmacia Biotech Ultrospec 3000) at 517 nm against the absorbance of DPPH radical. Further, ferric reducing/antioxidant power (FRAP) assay was performed according to the previous study with some modifications, the principle of which was based on reducing a ferric 2,4,6-tris(2-pyridyl)-1,3,5-triazine (Fe^3+-TPTZ) to ferrous in the presence of prepared compounds. Finally, a standard curve was drawn by considering the different concentrations (10–1000 µM) of ferrous sulfate.

Data set [3] is described as follows: Ferric reducing/antioxidant power (FRAP) assay. The class given is physicochemical. Particulars: for Antioxidant effect in FRAP (in words): Fig. 3C. The procedure:
as §1

Data set [4] is described as follows: ABTS radical decolorization assay. The class given is physicochemical. Particulars: final concentration 1–30 μM, absorbance at 734 nm. The procedure:
as §1

For data set [5], the system named is PC12 cells. Put plainly: Cell viability of PC12 cells treated with CHP4 (MTT). The class given is cell-based. Particulars: concentrations of 0–100 μM; 24 and 48 h. The procedure:
Rattus norvegicus pheochromocytoma PC12 cells (Pastor Institute, Iran) were cultured in the Dulbecco's Modified Eagle's Medium (DMEM) containing 10% fetal bovine serum (FBS) and 1% penicillin/streptomycin (Gibco) at 37 °C with 5% CO2. In order to examine the role of CHP4, PC12 cells were treated with the different concentrations (10–100 µM) of CHP4 for 24 and 48 h. […] Furthermore, […] 10 µL of 0.5 mg/mL MTT stock solution were added to each well containing about 1 mL of medium and the mixture was incubated for 4 h. Then, the plates were agitated on a plate shaker for 30 min and optical density was read at 570 nm by using an ELISA reader (Biotech).

For data set [6], the system named is PC12 cells. Description: Ab1-42-induced cytotoxicity in PC12 cells, neuroprotection (MTT). The class given is cell-based. Particulars: 100 µM Ab1-42, 24 h.
Description: Rattus norvegicus pheochromocytoma PC12 cells (Pastor Institute, Iran) were cultured in the Dulbecco's Modified Eagle's Medium (DMEM) containing 10% fetal bovine serum (FBS) and 1% penicillin/streptomycin (Gibco) at 37 °C with 5% CO2. […] Furthermore, 50 µL of DMSO and 10 µL of 0.5 mg/mL MTT stock solution were added to each well containing about 1 mL of medium and the mixture was incubated for 4 h. Then, the plates were agitated on a plate shaker for 30 min and optical density was read at 570 nm by using an ELISA reader (Biotech).
A further data set concerns Tau-p. Put plainly: Western blot analysis of Tau-p in PC12 cells. It counts as cell-based, Rattus norvegicus. Conditions: PC12 cells in presence of Ab1-42; CHP4 at 20 and 30 µM, 24 h. The method, then:
(§2) To this end, the cells were seeded in the 6-well plate and treated with 20 and 30 µM CHP4 for 24 h. Additionally, they were washed with cold PBS, followed by lysing with lysis buffer (20 mM Tris (pH 7.5), 150 mM NaCl, 1 mM EDTA, 1% NP-40, 0.5% sodium deoxycholate, 0.1% SDS, 50 mM Tris, protease and phosphatase inhibitor cocktails) for 30 min on ice. After centrifuging lysates at 4 °C in 12,000g for 10 min, the supernatants were transferred to new tubes. Protein concentration was detected through using the Bradford assay. Further, the denatured proteins was resolved on SDS-PAGE, transferred onto PVDF membranes (Millipore, Billerica, MA, USA), and blocked with 5% nonfat dry milk in the PBS containing 0.1% Tween-20 (PBST). Then, the membranes were incubated with the rabbit primary antibodies against Tau-p, HSP70, and β-actin (as a control group) overnight at 4 °C, and exposed with the horseradish peroxidase (HRP)-conjugated second antibody for 2 h at room temperature. Finally, the density of relative protein bands was determined through densitometric scanning the blots by using Image-J program.
On the technique in general: A western blot detects proteins with antibodies after separation by electrophoresis.

For a further data set, the system named is HSP70. Put plainly: Western blot analysis of HSP70 in PC12 cells. The class given is cell-based, Rattus norvegicus. Conditions: PC12 cells in presence of Ab1-42; CHP4 30 μM (b1). The method, then:
as §2

pIC50: −log10 of the molar value. Entries after “also recorded” stand apart in the source; their conditions may differ.

T1 sequence (O42275 24-633): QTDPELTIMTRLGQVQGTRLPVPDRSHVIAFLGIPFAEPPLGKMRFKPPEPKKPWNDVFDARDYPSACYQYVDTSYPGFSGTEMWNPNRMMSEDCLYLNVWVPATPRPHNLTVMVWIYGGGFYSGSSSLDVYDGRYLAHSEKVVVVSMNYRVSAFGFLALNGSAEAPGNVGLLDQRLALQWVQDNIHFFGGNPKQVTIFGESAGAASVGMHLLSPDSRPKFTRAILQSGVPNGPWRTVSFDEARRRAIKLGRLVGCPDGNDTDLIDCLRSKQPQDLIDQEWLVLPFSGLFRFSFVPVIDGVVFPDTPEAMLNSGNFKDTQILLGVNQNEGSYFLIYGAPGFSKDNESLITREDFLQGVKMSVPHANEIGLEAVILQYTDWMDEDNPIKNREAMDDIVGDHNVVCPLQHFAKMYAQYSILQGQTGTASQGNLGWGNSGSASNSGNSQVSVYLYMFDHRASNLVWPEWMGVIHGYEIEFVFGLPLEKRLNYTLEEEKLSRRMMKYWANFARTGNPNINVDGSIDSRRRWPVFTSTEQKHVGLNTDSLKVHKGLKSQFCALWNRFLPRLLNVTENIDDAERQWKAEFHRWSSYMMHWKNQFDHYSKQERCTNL

With `Clc1ccc(/C=N/Nc2nccnc2Cl)cc1` [CHP5, (E)-2-chloro-3-(2-(4-chlorobenzylidene)hydrazineyl)pyrazine], the pIC50 in data set [1] was 5.38. Further, the “Scavenging activity on DPPH radical (in words)” value (“Scavenging activity … (in words)” below) in data set [2] is “low”. Further, the “Antioxidant effect in FRAP (in words)” value in data set [3] is on record as “least”.

As for `Oc1cccc(/C=N/Nc2nccnc2Cl)c1` [CHP3, (E)-3-((2-(3-chloropyrazin-2-yl)hydrazineylidene)methyl)phenol], the “Scavenging activity … (in words)” value in data set [2] is “highest scavenging activity”.

As to `COc1ccc(/C=N/Nc2nccnc2Cl)cc1` [CHP1, (E)-2-chloro-3-(2-(4-methoxybenzylidene) hydrazinyl) pyrazine], in data set [4], the “ABTS radical scavenging activity (inhibition)” value is on record as 48%. The “Scavenging activity … (in words)” value in data set [2] is “moderate”.

Take `Oc1ccccc1/C=N/Nc1nccnc1Cl` [CHP4, (E)-2-((2-(3-chloropyrazin-2-yl)hydrazineylidene)methyl)phenol]: the pIC50 in data set [1] is 5.42. Also, the “Scavenging activity … (in words)” value in data set [2] is reported as “highest scavenging activity”. Moreover, in data set [3], the “Antioxidant effect in FRAP (in words)” value was “highest”. Moreover, the “Ability for Fe3+ reduction (FRAP)” value in data set [3] (printed as 3.016 per 1 mM, concentration of Fe2+) turned out to be 3.016. Also, in the data set on PC12 cells [5], the “Toxicity in PC12 cells” value is listed as “non-toxic”. Further, the “Effect on Ab1-42-induced cell death” value in the data set on PC12 cells [6] was “significantly reduced the Ab1-42-induced cell death in a dose-dependent manner”. Besides, the “Tau-p expression (western blot)” value with Tau-p is given as “clearly decreased”. Moreover, the “HSP70 expression (western blot)” value in the data set on HSP70 is given as “significantly increased; also recorded: increased HSP70 expression”.

In turn, `Cc1ccc2occ(/C=N/Nc3nccnc3Cl)c(=O)c2c1` [CHP2, (E)-3-((2-(3-chloropyrazin-2-yl)hydrazineylidene)methyl)-6-methyl-4H-chromen-4-one] gave a pIC50 in data set [2] (517 nm) of 4.59. Further, the “Scavenging activity … (in words)” value in data set [2] is reported as “highest scavenging activity”.

Broadly, the pIC50 is the IC50 on a negative log10 scale, so that one unit is a factor of ten.
